Results reported in patent US20140187593A1, “DIAGNOSTIC TEST AND TREATMENT FOR A NE[…]” (priority 2012, published 2014).

Test system: patients with VMAT2 mutation
Test: Clinical response of the index case to vitamin B6 or folinic acid
Format: in vivo, human
Text: The index case was a person with global developmental delay and abnormal movements. They had first been brought to medical attention with hypotonia, loss of acquired head control, and paroxysmal stereotyped episodes of persistent eye deviation and crying lasting hours. Video-EEG monitoring had excluded seizures, and a symptom diagnosis of oculogyric crisis had been made. Development had been normal initially, but had slowed after presentation. […] […] […] They had axial hypotonia and appendicular hypertonia specifically involving extensor muscles of upper and lower extremities. Deep tendon reflexes were 2+/4 and plantars flexor. […] Gait was parkinsonian with typical shuffling, posture was stooped, and postural reflexes diminished. They walked with bilateral alternating dystonia of hands and feet with intermittent toe walking and foot inversion, and was unable to tandem walk.

SMILES	Clinical improvement of symptoms
Nc1nc(=O)c2c([nH]1)NCC(CNc1ccc(C(=O)N[C@@H](CCC(=O)O)C(=O)O)cc1)N2C=O (mixture of isomers) [folinic acid]	no improvement
Cc1ncc(CO)c(CO)c1O.Cl [vitamin B6]	no improvement
